From patent US20230087342A1, “AZEPANE DERIVATIVE” (Nippon Chemiphar Co., Ltd., priority 2019, published 2023) come the findings set out here.

As usually defined, the CLint scaled is the capacity of the preparation to metabolise the compound, expressed as a volume cleared per time. Read a low CLint scaled as greater metabolic stability. As usually defined, the EC50 is the midpoint of the concentration-response curve. A higher EC50 goes with weaker potency.

One data set is described as follows: Metabolic stability test. Format: in vitro ADME. The settings on record: human liver microsomes, 0 to 30 minutes; a hydrochloride was used. As for the experimental part:
To determine the unchanged product-residual ratio of the test compound in the reaction sample, human liver microsomes and the test compound were reacted for a predetermined time (0 to 30 minutes). The unchanged product-residual ratio at a reaction time of 0 hours was considered 100%, the residual ratio after incubation was log-linear plotted with respect to the time, a regression line (y=100 e^−kt, k=slope of the line: elimination rate constant) was determined, and the metabolic clearance CLint (mL/min/kg) was calculated using the following formula.
CLint*=k (−min)×45 (mg MS protein/g liver)×21 (g liver/kg)/MS protein (mg MS protein/mL)
*: Yamazaki S.; Skaptason J.; Romero D, Vekich S.; Jones HM.; Tan W.; Wilner KD.; Koudriakova T. Drug Metab. Dispos. 2011 March; 39 (3): 383-393.

In a further data set the target is T1, human κ opioid receptors (Homo sapiens, UniProt P41145).
T1 construct: host or cells: CHO cells
T1 sequence (P41145 whole entry): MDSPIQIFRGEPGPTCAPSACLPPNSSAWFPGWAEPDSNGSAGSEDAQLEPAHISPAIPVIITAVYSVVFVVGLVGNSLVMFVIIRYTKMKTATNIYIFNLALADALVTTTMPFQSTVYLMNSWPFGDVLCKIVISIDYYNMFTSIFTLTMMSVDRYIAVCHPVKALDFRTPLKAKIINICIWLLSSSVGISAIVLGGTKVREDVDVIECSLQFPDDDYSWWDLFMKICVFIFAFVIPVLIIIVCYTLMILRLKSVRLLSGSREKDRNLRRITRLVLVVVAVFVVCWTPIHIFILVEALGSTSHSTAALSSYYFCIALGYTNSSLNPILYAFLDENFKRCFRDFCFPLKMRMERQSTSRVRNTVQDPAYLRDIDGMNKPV
Description: Opioid receptor function test (Lance Ultra cAMP kit, agonist activity). In kind it is cell-based. As to conditions: CHO cells expressing human κ opioid receptors, 10 μM forskolin, 30 minutes. Put shortly: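 CHO cells expressing human κ opioid receptor incubated 30 min with test compound (10^−14 to 10^−7 M) and 10 μM forskolin in HSS/5 mM HEPES pH 7.4 with 0.5 mM IBMX and 0.1% SA. cAMP measured by TR-FRET (Lance Ultra) 1 h after detection reagent addition.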

With `Cc1cc2c(cc1O)[C@@]13CCN(C(=O)Cc4cccc(C(F)(F)F)n4)CC[C@@]1(O)[C@@H](C2)N(CC1CC1)CC3` [Example 322, 1-((5aS,6R,11bR)-14-(cyclopropylmethyl)-5a,10-dihydroxy-9-methyl-1,2,5,5a,6,7-hexahydro-6,11b-(epiminoethano)naphtho[1,2-d]azepin-3(4H)-yl)-2-(6-(trifluoromethyl)pyridin-2-yl)ethan-1-one], the intrinsic clearance (CLint scaled) in “Metabolic stability test” amounted to 6.6 mL/min/kg. `Oc1ccc2c(c1)[C@@]13CCN(CCc4nccs4)CC[C@@]1(O)[C@@H](C2)N(CC1CC1)CC3` [Example 31, (5aS,6R,11bS)-14-(cyclopropylmethyl)-3-(2-(thiazol-2-yl)ethyl)-2,3,4,5,6,7-hexahydro-6,11b-(epiminoethano)naphtho[1,2-d]azepine-5a,10(1H)-diol] came in with an EC50 on human κ opioid receptors of 0.11 nM. In “Metabolic stability test”, the CLint scaled is 7.5 mL/min/kg.

Turning to `Cc1cnn(CCN2CC[C@]34CCN(CC5CC5)[C@H](Cc5cccc(O)c53)[C@]4(O)CC2)c1` [Example 277, (5aS,6R,11bS)-14-(cyclopropylmethyl)-3-(2-(4-methyl-1H-pyrazol-1-yl)ethyl)-2,3,4,5,6,7-hexahydro-6,11b-(epiminoethano)naphtho[1,2-d]azepine-5a,11(1H)-diol], the intrinsic metabolic clearance (CLint scaled) in “Metabolic stability test” was 6.4 mL/min/kg.

The compound `Oc1ccc2c(c1)[C@@]13CCN(CCn4cc(Br)cn4)CC[C@@]1(O)[C@@H](C2)N(CC1CC1)CC3` [Example 61, (5aS,6R,11bS)-3-(2-(4-bromo-1H-pyrazol-1-yl)ethyl)-14-(cyclopropylmethyl)-2,3,4,5,6,7-hexahydro-6,11b-(epiminoethano)naphtho[1,2-d]azepine-5a,10(1H)-diol] displayed an EC50 on human κ opioid receptors of 0.028 nM. The intrinsic metabolic clearance (CLint scaled) in the data set “Metabolic stability test” is 26 mL/min/kg. Consider `Cc1cnn(CCN2CC[C@]34CCN(CC5CC5)[C@H](Cc5cc(I)c(O)cc53)[C@]4(O)CC2)c1` [Example 298, (5aS,6R,11bS)-14-(cyclopropylmethyl)-9-iodo-3-(2-(4-methyl-1H-pyrazol-1-yl)ethyl)-2,3,4,5,6,7-hexahydro-6,11b-(epiminoethano)naphtho[1,2-d]azepine-5a,10(1H)-diol], for which, in “Metabolic stability test”, the CLint scaled is 22.5 mL/min/kg. The same measure, in the same setting: next, `O=C(Cc1ccccn1)N1CC[C@]23CCN(CC4CC4)[C@H](Cc4cc(C(F)(F)F)c(O)cc42)[C@]3(O)CC1` [Example 320, 1-((5aS,6R,11bR)-14-(cyclopropylmethyl)-5a,10-dihydroxy-9-(trifluoromethyl)-1,2,5,5a,6,7-hexahydro-6,11b-(epiminoethano)naphtho[1,2-d]azepin-3(4H)-yl)-2-(pyridin-2-yl)ethan-1-one]: 22.9 mL/min/kg.

On human κ opioid receptors, `Cc1cc(CCN2CC[C@]34CCN(CC5CC5)[C@H](Cc5ccc(O)cc53)[C@]4(O)CC2)ns1` [Example 177, (5aS,6R,11bS)-14-(cyclopropylmethyl)-3-(2-(5-methylisothiazol-3-yl)ethyl)-2,3,4,5,6,7-hexahydro-6,11b-(epiminoethano)naphtho[1,2-d]azepine-5a,10(1H)-diol] returned an EC50 of 0.019 nM. Also, the intrinsic clearance (CLint scaled) in “Metabolic stability test” turned out to be 9.5 mL/min/kg.

On human κ opioid receptors, `Cc1cc2c(cc1O)[C@@]13CCN(C(=O)Cc4ccccn4)CC[C@@]1(O)[C@@H](C2)N(CC1CC1)CC3` [Example 291, 1-((5aS,6R,11bR)-14-(cyclopropylmethyl)-5a,10-dihydroxy-9-methyl-1,2,5,5a,6,7-hexahydro-6,11b-(epiminoethano)naphtho[1,2-d]azepin-3(4H)-yl)-2-(pyridin-2-yl)ethan-1-one] showed an EC50 of 0.55 nM. In “Metabolic stability test”, the CLint scaled is 8 mL/min/kg. In the case of `Cc1cnn(CCN2CC[C@]34CCN[C@H](Cc5ccc(O)cc53)[C@]4(O)CC2)c1` [Example 176, (5aS,6R,11bR)-3-(2-(4-methyl-1H-pyrazol-1-yl)ethyl)-2,3,4,5,6,7-hexahydro-6,11b-(epiminoethano)naphtho[1,2-d]azepine-5a,10(1H)-diol], the CLint scaled in the data set “Metabolic stability test” is 8.2 mL/min/kg.

Turning to `O=C(Cc1ncccn1)N1CCC[C@@]2(O)[C@H]3Cc4ccc(O)cc4[C@@]2(CCN3CC2CC2)C1` [Example 139, 1-((5aS,6R,11bS)-14-(cyclopropylmethyl)-5a,10-dihydroxy-3,4,5,5a,6,7-hexahydro-6,11b-(epiminoethano)naphtho[1,2-c]azepin-2(1H)-yl)-2-(pyrimidin-2-yl)ethan-1-one], the CLint scaled in “Metabolic stability test” is 29.7 mL/min/kg.

On to `NC(=O)c1ccc2c(c1)[C@@]13CCN(C(=O)Cc4ccccn4)CC[C@@]1(O)[C@@H](C2)N(CC1CC1)CC3` [Example 247, (5aS,6R,11bR)-14-(cyclopropylmethyl)-5a-hydroxy-3-(2-(pyridin-2-yl)acetyl)-1,2,3,4,5,5a,6,7-octahydro-6,11b-(epiminoethano)naphtho[1,2-d]azepine-10-carboxamide], for which the CLint scaled in “Metabolic stability test” amounted to 4.8 mL/min/kg. On the same count and under the same terms, next, `O=C(Cc1ncccn1)N1CC[C@]23CCN(CC4CC4)[C@H](Cc4ccc(O)cc42)[C@]3(O)CC1` [Example 20, 1-((5aS,6R,11bR)-14-(cyclopropylmethyl)-5a,10-dihydroxy-1,2,5,5a,6,7-hexahydro-6,11b-(epiminoethano)naphtho[1,2-d]azepin-3(4H)-yl)-2-(pyrimidin-2-yl)ethan-1-one]: 3.9 mL/min/kg; `NC(=O)c1ccc2c(c1O)[C@@]13CCN(C(=O)Cc4ccccn4)CC[C@@]1(O)[C@@H](C2)N(CC1CC1)CC3` [Example 353, (5aS,6R,11bR)-14-(cyclopropylmethyl)-5a,11-dihydroxy-3-(2-(pyridin-2-yl)acetyl)-1,2,3,4,5,5a,6,7-octahydro-6,11b-(epiminoethano)naphtho[1,2-d]azepine-10-carboxamide]: 7.9 mL/min/kg. Consider `Oc1ccc2c(c1)[C@@]13CCN(CCc4ccco4)CC[C@@]1(O)[C@@H](C2)N(CC1CC1)CC3` [Example 32, (5aS,6R,11bS)-14-(cyclopropylmethyl)-3-(2-(furan-2-yl)ethyl)-2,3,4,5,6,7-hexahydro-6,11b-(epiminoethano)naphtho[1,2-d]azepine-5a,10(1H)-diol], for which the midpoint of the response on human κ opioid receptors, the EC50, lay at 0.13 nM. Still for that read-out and setting: next, `Oc1ccc2c(c1)[C@@]13CCN(CCc4ccsn4)CC[C@@]1(O)[C@@H](C2)N(CC1CC1)CC3` [Example 209, (5aS,6R,11bS)-14-(cyclopropylmethyl)-3-(2-(isothiazol-3-yl)ethyl)-2,3,4,5,6,7-hexahydro-6,11b-(epiminoethano)naphtho[1,2-d]azepine-5a,10(1H)-diol]: 0.05 nM; `Oc1ccc2c(c1)[C@@]13CCN(CCn4nccn4)CC[C@@]1(O)[C@@H](C2)N(CC1CC1)CC3` [Example 66, (5aS,6R,11bS)-3-(2-(2H-1,2,3-triazol-2-yl)ethyl)-14-(cyclopropylmethyl)-2,3,4,5,6,7-hexahydro-6,11b-(epiminoethano)naphtho[1,2-d]azepine-5a,10(1H)-diol]: 0.14 nM; `NC(=O)c1ccc2c(c1)[C@@]13CCN(C(=O)CCn4cc(C(F)(F)F)cn4)CC[C@@]1(O)[C@@H](C2)N(CC1CC1)CC3` [Example 264, (5aS,6R,11bR)-14-(cyclopropylmethyl)-5a-hydroxy-3-(3-(4-(trifluoromethyl)-1H-pyrazol-1-yl)propanoyl)-1,2,3,4,5,5a,6,7-octahydro-6,11b-(epiminoethano)naphtho[1,2-d]azepine-10-carboxamide]: 0.29 nM. Same read-out and setting: under `O=C(Cn1cc(C(F)(F)F)cn1)N1CC[C@]23CCN(CC4CC4)[C@H](Cc4ccc(O)cc42)[C@]3(O)CC1` [Example 143, 1-((5aS,6R,11bR)-14-(cyclopropylmethyl)-5a,10-dihydroxy-1,2,5,5a,6,7-hexahydro-6,11b-(epiminoethano)naphtho[1,2-d]azepin-3(4H)-yl)-2-(4-(trifluoromethyl)-1H-pyrazol-1-yl)ethan-1-one] stands 0.033 nM.

On human κ opioid receptors, `Oc1ccc2c(c1)[C@@]13CCN(CCN4CCC(F)(F)C4)CC[C@@]1(O)[C@@H](C2)N(CC1CC1)CC3` [Example 182, (5aS,6R,11bS)-14-(cyclopropylmethyl)-3-(2-(3,3-difluoropyrrolidin-1-yl)ethyl)-2,3,4,5,6,7-hexahydro-6,11b-(epiminoethano)naphtho[1,2-d]azepine-5a,10(1H)-diol] had an EC50 of 0.22 nM.

In the case of `Cc1cnn(CCC(=O)N2CC[C@]34CCN(CC5CC5)[C@H](Cc5ccc(O)cc53)[C@]4(O)CC2)c1` [Example 220, 1-((5aS,6R,11bR)-14-(cyclopropylmethyl)-5a,10-dihydroxy-1,2,5,5a,6,7-hexahydro-6,11b-(epiminoethano)naphtho[1,2-d]azepin-3(4H)-yl)-3-(4-methyl-1H-pyrazol-1-yl)propan-1-one], the concentration for a half-maximal effect (EC50) on human κ opioid receptors was found to be 0.26 nM. With `Cc1cnn(CCN2CC[C@]34CCN(CC5CC5)[C@H](Cc5cc(C(N)=O)c(O)cc53)[C@]4(O)CC2)c1` [Example 295, (5aS,6R,11bS)-14-(cyclopropylmethyl)-5a,10-dihydroxy-3-(2-(4-methyl-1H-pyrazol-1-yl)ethyl)-1,2,3,4,5,5a,6,7-octahydro-6,11b-(epiminoethano)naphtho[1,2-d]azepine-9-carboxamide], the CLint scaled in “Metabolic stability test” was found to be 17.2 mL/min/kg. `Cc1cc2c(cc1O)[C@@]13CCN(C(=O)Cn4cc(C(F)(F)F)cn4)CC[C@@]1(O)[C@@H](C2)N(CC1CC1)CC3` [Example 329, 1-((5aS,6R,11bR)-14-(cyclopropylmethyl)-5a,10-dihydroxy-9-methyl-1,2,5,5a,6,7-hexahydro-6,11b-(epiminoethano)naphtho[1,2-d]azepin-3(4H)-yl)-2-(4-(trifluoromethyl)-1H-pyrazol-1-yl)ethan-1-one]: the EC50 on human κ opioid receptors was found to be 0.084 nM.
